# Experimental data reported in US20240366495A1, “COMPOSITION FOR AMELIORATING WRINKLES USING FERMENTED EXTRACT OF CANNABIS STEM AND PREPARATION METHOD THEREOF” (KOREA INSTITUTE OF SCIENCE AND TECHNOLOGY, priority 2023, published 2024).
# Assays:
# [1] = system: human dermal fibroblasts (HDFs); conditions: sample 0 to 1000 μg/mL, 24 hours, MTT, FIG. 1 / FIG. 2
# Description: First, the cytotoxicity of each sample was confirmed using the following method. After human dermal fibroblasts (HDFs) were cultured in a 96-well culture plate at a concentration of 1.5×10^4 cells/well for 24 hours to reach a clustering coefficient of 70 to 80%, and then the sample prepared in Example 1 was treated at a concentration of 0 to 1000 μg/mL, and cultured in an incubator (37° C., 5% CO2) for an additional 24 hours. […] The absorbance of each well was measured at 570 nm using a microplate reader.
# HDFs = experiment: Observation of cell morphology changes after UVB irradiation; format: cell-based, human; conditions: highest non-cytotoxic concentration, UVB 25 mJ/cm^2 after 2 hours, cultured 24 hours, FIG. 3
# Description: An experiment for confirming an anti-wrinkle effect was conducted on each sample confirmed in Example 1.
smiles,measurement,setting,value
O=C1O[C@H]([C@@H](O)CO)C(O)=C1O [vitamin C],concentration at which cytotoxicity is exhibited,[1],≥ 500 µg/mL
same,number of cells after UVB irradiation,HDFs,number of cells increased to the level of the untreated group
